Reference: US20240201169A1, “METHODS OF THREE-DIMENSIONAL TUMOR SPHEROID MICROARRAY FOR HIGH-THROUGHPUT, HIGH-CONTENT IMMUNE CELL-MEDIATED CYTOTOXICITY” (RENSSELAER POLYTECHNIC INSTITUTE, priority 2021, published 2024)
pEC50: −log10 of the molar value.

Key:
MiaPaCa-2 spheroids = settings: antibody 2.5 μg/mL with NK92-CD16 (5:1) and paclitaxel dose range, 24 h
Experimental: High-content imaging of 3D tumor spheroid micropillar array for effector cell-mediated cytotoxicity including NK ADCC/drug combination. Uniform-sized 3D spheroids in the 330-micropillar array were used to perform high-throughput ADCC on three different cancer cell lines; MiaPaCa-2, MCF7 and MDA-MB-231, the latter a triple negative breast cancer cell line, in the presence and absence of two chemotherapeutic drugs, doxorubicin and paclitaxel. The ADCC screen was performed by spotting 250 nL onto polydopamine-coated micropillars including 2500 target cancer cells per spot. The cells were cultured for 3 days and then treated with NK92-CD16 cells. […] As a control, one block of spots was reserved for exposure of target cells with both antibody and the drugs but without NK92-CD16 cells. The micropillar/microwell sandwich platform was incubated for 24 h upside-down to allow for target cell killing on culture day 3. […]
(§1) Similarly, for the dose response experiments with paclitaxel, where the E:T ratio was fixed at 5:1, 25 different conditions including a dead cell control were evaluated, as shown in Table 2.
(§2) Unconjugated anti-HER2 antibody was used for experiments on 330 micropillar/microwell chips. […] The chips were subsequently washed in DPBS and imaged using an ASFA™ Cell Scanner (MBD Korea Co., South Korea) and quantitatively analyzed using cell analyzer software within the imaging system. […]

MDA-MB-231 spheroids = test: 3D tumor spheroid 330-micropillar/microwell cytotoxicity (NK ADCC/drug combination, paclitaxel dose response); format: cell-based; settings: for target cell cytotoxicity of combination: combination of NK92-CD16 at E:T 10:1, Trastuzumab and drug (3.5 nM doxorubicin, p<0.01; 7.0 nM paclitaxel, p<0.05)
Experimental: (§3) High-content imaging of 3D tumor spheroid micropillar array for effector cell-mediated cytotoxicity including NK ADCC/drug combination. Uniform-sized 3D spheroids in the 330-micropillar array were used to perform high-throughput ADCC on three different cancer cell lines; MiaPaCa-2, MCF7 and MDA-MB-231, the latter a triple negative breast cancer cell line, in the presence and absence of two chemotherapeutic drugs, doxorubicin and paclitaxel. The ADCC screen was performed by spotting 250 nL onto polydopamine-coated micropillars including 2500 target cancer cells per spot. The cells were cultured for 3 days and then treated with NK92-CD16 cells. […] As a control, one block of spots was reserved for exposure of target cells with both antibody and the drugs but without NK92-CD16 cells. The micropillar/microwell sandwich platform was incubated for 24 h upside-down to allow for target cell killing on culture day 3. The next day, the chips were then washed, stained with Hoechst 33342, Calcein-AM and Propidium Iodide, and imaged using the ASFA™ scanner.
(§4) There was interest in whether MDA-MB-231, which is a triple negative breast cancer cell line having reduced expression of estrogen receptor (ER), progesterone receptor and HER252, was susceptible to cell death upon combination exposure of paclitaxel, Atezolizumab and NK92-CD16 cells. Triple negative breast cancers are particularly aggressive to treat due to very low expression levels of ER, PR and HER253. To test this, the three target cancer cell lines were spotted onto the 330-micropillar platform to generate the corresponding 3D spheroids. […] The 3D spheroids on the micropillar chip were incubated for 24 h, and then stained and imaged.
3D experiments on 330-micropillar/microwell sandwich system. Polystyrene 330 micropillar chips (MBD Korea Co., South Korea) were coated with polydopamine, washed and dried until further use. The 330 well chips were UV-treated using a 96 W transilluminator (Syngene GVM-30) for 4 h to enhance surface hydrophilicity. Cancer cells were detached as described previously and mixed with high concentration growth factor-reduced Matrigel to obtain a final cell concentration of 1×10^7 cells/mL. Then, 250 nL of the Matrigel-cell mixture was spotted using the ASFA™ spotter onto the polydopamine coated 330 micropillar chips. The chips were incubated face down in a humidity chamber at 37° C. for 15 min to allow for gelation and then they were sandwiched with the corresponding 330 microwell chip including 3.6 μL of fresh medium per well. The chips were cultured for a period of 3 days prior to NK cell exposure. The cell growth medium on the chip was exchanged every 2 days. For cytotoxicity experiments, where the NK92-CD16 ratio was varied, 25 different conditions were tested (see Table 1 below), including a dead control (via addition of saponin).
as §1
as §2, with “chips. […] The micropillar chip with target cells was then stamped onto the 330 microwell chip and incubated upside down for 24 h.” for “chips.”

MCF7 spheroids = format: cell-based; settings: for target cell cytotoxicity of combination: combination of NK92-CD16 at E:T 10:1, Trastuzumab and drug (3.5 nM doxorubicin, p<0.01; 7.0 nM paclitaxel, p<0.05)
Experimental: as §3, §4
3D experiments on 330-micropillar/microwell sandwich system. Polystyrene 330 micropillar chips (MBD Korea Co., South Korea) were coated with polydopamine, washed and dried until further use. The 330 well chips were UV-treated using a 96 W transilluminator (Syngene GVM-30) for 4 h to enhance surface hydrophilicity. Cancer cells were detached as described previously and mixed with high concentration growth factor-reduced Matrigel to obtain a final cell concentration of 1×10^7 cells/mL. Then, 250 nL of the Matrigel-cell mixture was spotted using the ASFA™ spotter onto the polydopamine coated 330 micropillar chips. […]
as §1, §2

[1] = tested on: three target cancer cell lines (3D spheroids); test: cells; settings: 24 h, read-out: EC50 (paclitaxel-induced cytotoxicity)
Description: as §4
3D experiments on 330-micropillar/microwell sandwich system. Polystyrene 330 micropillar chips (MBD Korea Co., South Korea) were coated with polydopamine, washed and dried until further use. […]
as §1, §2

[2] = paclitaxel alone, spheroid culture

With Atezolizumab the inducing cytotoxicity (MiaPaCa-2 spheroids) was “effective in inducing cytotoxicity”.

In the case of `COc1cccc2c1C(=O)c1c(O)c3c(c(O)c1C2=O)C[C@@](O)(C(=O)CO)C[C@@H]3O[C@H]1C[C@H](N)[C@H](O)[C@H](C)O1` [doxorubicin], the “target cell cytotoxicity of combination” value (MDA-MB-231 spheroids; 24 h) was “significantly more effective” and the “target cell cytotoxicity of combination” value (MCF7 spheroids; 24 h) was “significantly more effective”.

`CC(=O)O[C@H]1C(=O)[C@@]2(C)[C@H]([C@H](OC(=O)c3ccccc3)[C@]3(O)C[C@H](OC(=O)[C@H](O)[C@@H](NC(=O)c4ccccc4)c4ccccc4)C(C)=C1C3(C)C)[C@]1(OC(C)=O)CO[C@@H]1C[C@@H]2O` [paclitaxel] was tested, and the “target cell cytotoxicity of combination” value (MDA-MB-231 spheroids; 24 h) was “significantly more effective”, the “effectiveness as a cytotoxic agent” value (MDA-MB-231 spheroids; [2]) was “poorly effective” and the “fold lower EC50 value for paclitaxel” value (MDA-MB-231 spheroids; paclitaxel in the presence of Atezolizumab 2.5 μg/mL along with NK92-CD16 (5:1), 24 h) was “approximately 43 fold”. For the same compound, the “cytotoxic effectiveness of condition” value (MDA-MB-231 spheroids; paclitaxel in the presence of both Trastuzumab 2.5 μg/mL and NK92-CD16 (5:1), 24 h) was “did not prove to be effective”, the pEC50 [1] was less than 3.30 and the “target cell cytotoxicity of combination” value (MCF7 spheroids; 24 h) was “significantly more effective”. The “effectiveness as a cytotoxic agent” value (MCF7 spheroids; [2]) was “poorly effective” and the “fold lower EC50 value for paclitaxel” value (MCF7 spheroids; paclitaxel with Trastuzumab 2.5 μg/mL and NK92-CD16 (5:1) vs absence of antibody and effector cells, 24 h) was “approximately 1.8 fold”.
